Laboratory results: US6579556B2, “Ambient stable beverage” (Lipton, division of Conopco, Inc., priority 2000, dated 2003)
Values after ≈ are worked out from the molar mass of the structure shown. Like-named read-outs stand apart in the source and are kept apart here.

Assays:
Format in all cases: cell-based
[1] = system: yeast Saccharomyces cerevisiae X2180-1B; assay: Fungicidal activity / MIC at 50° C. versus 30° C., yeast survival in YEPD broth pH 3.4; conditions: for MIC: Saccharomyces cerevisiae, read-out: MIC50; for Importance: rating as pasteurisation adjunct
Description: In the table the minimum inhibitory concentration (MIC) is given for each compound as well as the molecular weight (M.W.), the logPoct and a rating of its importance. […] The logPoct, that is the logarithm of the partition coefficient of the relevant compound in octanol and thus a measure of its […], was determined using […]™ software from the CHEMOFFICE ULRA ENHANCED 2000™ software package (version 5.5) that is commercially available from CambridgeSoft.
(§1) YEPD contained glucose, 20 g/l, peptone 20 g/l and yeast extract 10 g/l. Rows of 30 ml tubes containing 10 ml YEPD, pH 3.4, were equilibrated at the required temperature for 7 minutes in a water bath, before inoculation with 10^4 cells/ml of the yeast Saccharomyces cerevisiae X2180-1B. Tubes were held at temperature for 10 minutes before being cooled rapidly in cold water for 5 minutes. Tubes were then incubated for 48 hours at 25° C. to allow surviving yeasts to grow out, and form discrete colonies.
as §1, §1, §1

[2] = system: yeast Saccharomyces cerevisiae X2180-1B; assay: Ready to Drink tea experiments, yeast growth after heat + pasteurisation adjunct; conditions: 0-200 ppm, OD 600 nm at 14 days; for effect of heat+pasteurisation adjunct on yeast growth: Ready to Drink tea 0.14% tea pH 3.4, held at temperature 2 minutes; for effect of pasteurisation adjunct at low temperature on yeast growth: Ready to Drink tea 0.14% tea pH 3.4, low temperature
Description: Rows of 30 ml tubes containing 10 ml RTD tea, pH 3.4, were equilibrated at the required temperature for 7 minutes in a water bath, before inoculation with 10^4 cells/ml of the yeast Saccharomyces cerevisiae […]-1B. Tubes were held at temperature for 2 minutes before being cooled rapidly in cold water for 5 minutes. Tubes were then incubated for 14 days at 25° C. to allow surviving yeasts to grow out. At 14 days growth was measured by optical density at 600 nm in x11 diluted samples. […] Rows of 30 ml tubes containing 10 ml RTD tea, pH 3.4, were equilibrated at the required temperature for 7 minutes in a water bath, before inoculation with 10^4 cells/ml of the yeast Saccharomyces cerevisiae […]-1B. Tubes were held at temperature for 2 minutes before being cooled rapidly in cold water for 5 minutes. Tubes were then incubated for 14 days at 25° C. to allow surviving yeasts to grow out. At 14 days growth was measured by optical density at 600 nm in x11 diluted samples. […] Rows of 30 ml tubes containing 10 ml RTD tea, pH 3.4, were equilibrated at the required temperature for 7 minutes in a water bath, before inoculation with 10^4 cells/ml of the yeast Saccharomyces cerevisiae […]-1B. Tubes were held at temperature for 2 minutes before being cooled rapidly in cold water for 5 minutes. Tubes were then incubated for 14 days at 25° C. to allow surviving yeasts to grow out. At 14 days growth was measured by optical density at 600 nm in x11 diluted samples. […] Rows of 30 ml tubes containing 10 ml RTD tea, pH 3.4, were equilibrated at the required temperature for 7 minutes in a water bath, before inoculation with 10^4 cells/ml of the yeast Saccharomyces cerevisiae […]-1B. Tubes were held at temperature for 2 minutes before being cooled rapidly in cold water for 5 minutes. Tubes were then incubated for 14 days at 25° C. to allow surviving yeasts to grow out. At 14 days growth was measured by optical density at 600 nm in x11 diluted samples. […] Rows of 30 ml tubes containing 10 ml RTD tea, pH 3.4, were equilibrated at the required temperature for 7 minutes in a water bath, before inoculation with 10^4 cells/ml of the yeast Saccharomyces cerevisiae […]-1B. Tubes were held at temperature for 2 minutes before being cooled rapidly in cold water for 5 minutes. Tubes were then incubated for 14 days at 25° C. to allow surviving yeasts to grow out. At 14 days growth was measured by optical density at 600 nm in x11 diluted samples. […] Rows of 30 ml tubes containing 10 ml RTD tea, pH 3.4, were equilibrated at the required temperature for 7 minutes in a water bath, before inoculation with 10^4 cells/ml of the yeast Saccharomyces cerevisiae […]-1B. Tubes were held at temperature for 2 minutes before being cooled rapidly in cold water for 5 minutes. Tubes were then incubated for 14 days at 25° C. to allow surviving yeasts to grow out. At 14 days growth was measured by optical density at 600 nm in x11 diluted samples. […] Rows of 30 ml tubes containing 10 ml RTD tea, pH 3.4, were equilibrated at the required temperature for 7 minutes in a water bath, before inoculation with 10^4 cells/ml of the yeast Saccharomyces cerevisiae […]-1B. Tubes were held at temperature for 2 minutes before being cooled rapidly in cold water for 5 minutes. Tubes were then incubated for 14 days at 25° C. to allow surviving yeasts to grow out. At 14 days growth was measured by optical density at 600 nm in x11 diluted samples. […] Rows of 30 ml tubes containing 10 ml RTD tea, pH 3.4, were equilibrated at the required temperature for 7 minutes in a water bath, before inoculation with 10^4 cells/ml of the yeast Saccharomyces cerevisiae […]-1B. Tubes were held at temperature for 2 minutes before being cooled rapidly in cold water for 5 minutes. Tubes were then incubated for 14 days at 25° C. to allow surviving yeasts to grow out. At 14 days growth was measured by optical density at […] in x11 diluted samples.

[3] = system: bacteria, Gluconobacter sp. 222; assay: Bacteria experiments, growth after heat + pasteurisation adjunct; conditions: 0-100 ppm, growth measured visually at 14 days
Description: Rows of 30 ml tubes containing 10 ml soft drink, pH 3.4, were equilibrated at the required temperature for 7 minutes in a water bath, before inoculation with 10^4 cells/ml of the bacteria, Gluconobacter sp. 222. Tubes were held at temperature for 2 minutes before being cooled rapidly in cold water for 5 minutes. Tubes were then incubated for 14 days at 25° C. to allow surviving bacteria to grow out. At 14 days growth was measured visually.

[4] = minimum inhibitory concentration, 50° C.
[5] = minimum inhibitory concentration, 50° C., given as ppm

| Molecule | MIC [1, 4] [mM] | Importance [1] | further results |
| --- | --- | --- | --- |
| CC(=O)OC/C=C(\C)CCC=C(C)C [Geranyl acetate] | 1 | High (High effects compounds, most preferred, generally showed at least a 5 fold decrease in MIC, minimum inhibitory concentration at 50 °C compared with 30° C.) | effect of heat+pasteurisation adjunct on yeast growth [2]: remarkable combined synergistic effect; effect of pasteurisation adjunct at low temperature on yeast growth [2]: little effect |
| CC(=O)CC/C=C(\C)CCC=C(C)C [Geranylacetone] | 0.5 (≈ 97.2 µg/mL) | High (High effects compounds, most preferred, generally showed at least a 5 fold decrease in MIC, minimum inhibitory concentration at 50 °C compared with 30° C.) | effect of heat+pasteurisation adjunct on yeast growth [2]: remarkable combined synergistic effect; effect of pasteurisation adjunct at low temperature on yeast growth [2]: little effect |
| CCCCCCCCCCCCO [Lauric alcohol] |  | High (High effects compounds, most preferred, generally showed at least a 5 fold decrease in MIC, minimum inhibitory concentration at 50 °C compared with 30° C.) | MIC50 [1, 4]: 0.1 mM (≈ 18.6 µg/mL); MIC50 [1, 5]: 18.6 ppm; effect of heat+pasteurisation adjunct on yeast growth [2]: remarkable combined synergistic effect; effect of pasteurisation adjunct at low temperature on yeast growth [2]: little effect |
| CCCCCCCC=CC(=O)OCC [Ethyl 2-decenoate] | 1 (≈ 198 µg/mL) | High (High effects compounds, most preferred, generally showed at least a 5 fold decrease in MIC, minimum inhibitory concentration at 50 °C compared with 30° C.) | effect of heat+pasteurisation adjunct on yeast growth [2]: remarkable combined synergistic effect; effect of pasteurisation adjunct at low temperature on yeast growth [2]: little effect |
| CCCCCCCCCCCCC=O [Tridecanal] | 5 (≈ 992 µg/mL) | High (High effects compounds, most preferred, generally showed at least a 5 fold decrease in MIC, minimum inhibitory concentration at 50 °C compared with 30° C.) |  |
| C=CC(C)(CCC=C(C)C)OC(=O)CC (stereo not drawn) [Linalyl propionate] | 20 (≈ 4210 µg/mL) | Mod |  |
| O=C(c1ccccc1)C(O)c1ccccc1 (stereo not drawn) [Benzoin] |  | 10 | MIC [1]: 10 mM (≈ 2120 µg/mL) |
| CCCCCCCCCCCCCC(=O)OC [Methyl myristate] | 60 (≈ 14500 µg/mL) | Low |  |
| CCCCCCCCCCCC=O [Lauric aldehyde] |  | High (High effects compounds, most preferred, generally showed at least a 5 fold decrease in MIC, minimum inhibitory concentration at 50 °C compared with 30° C.) | MIC50 [1, 4]: 0.2 mM (≈ 36.9 µg/mL); MIC50 [1, 5]: 36 ppm; effect of heat+pasteurisation adjunct on yeast growth [2]: remarkable combined synergistic effect; effect of pasteurisation adjunct at low temperature on yeast growth [2]: little effect |
| CCCCCCOC(=O)CCCCC [Hexyl hexanoate] | 30 (≈ 6010 µg/mL) | High (High effects compounds, most preferred, generally showed at least a 5 fold decrease in MIC, minimum inhibitory concentration at 50 °C compared with 30° C.) |  |
| CCCCCCCCCCCC(=O)OCCCC [Butyl laurate] | 100 (≈ 25600 µg/mL) | Low |  |
| CCCCCCCCCCCCCCO [Tetradecanol] | 50 (≈ 10700 µg/mL) | Mod |  |
| w-6-Hexadecalactone |  | Low | MIC50 [1, 4]: 50 mM |
| CC(C)C(=O)OCCOc1ccccc1 [2-Phenoxylethyl isobutyrate] |  | High (High effects compounds, most preferred, generally showed at least a 5 fold decrease in MIC, minimum inhibitory concentration at 50 °C compared with 30° C.) | MIC [1]: 0.1 mM (≈ 20.8 µg/mL) |
| O=C1CCCCCCCCCCCCCCO1 [w-Pentadecalactone] |  | Low | MIC50 [1, 4]: 60 mM (≈ 14400 µg/mL) |
| CC(=O)OC1CC2CCC1(C)C2(C)C (stereo not drawn) [Bornyl acetate] | 2 | Low |  |
| C=CCOC(=O)CCC1CCCCC1 [Allyl cyclohexanepropionate] | 1 (≈ 196 µg/mL) | High (High effects compounds, most preferred, generally showed at least a 5 fold decrease in MIC, minimum inhibitory concentration at 50 °C compared with 30° C.) |  |
| O=C(OCc1ccccc1)c1ccccc1O [Benzyl salicylate] | 50 (≈ 11400 µg/mL) | Low |  |
| C=C(C)C1CC=C(C)C(OC(=O)CC)C1 (stereo not drawn) [Carvyl propionate] |  | Mod | MIC50 [1, 4]: 5 mM (≈ 1040 µg/mL) |
| O=C(OCc1ccccc1)c1ccccc1 [Benzyl benzoate] | 20 (≈ 4240 µg/mL) | Mod |  |
| CCCCCCC(=O)OCCCC [Butyl heptanoate] | 5 (≈ 931 µg/mL) | High (High effects compounds, most preferred, generally showed at least a 5 fold decrease in MIC, minimum inhibitory concentration at 50 °C compared with 30° C.) |  |
| CCCCCCCCCCOC(=O)CC [Decyl propionate] | 50 (≈ 10700 µg/mL) | High (High effects compounds, most preferred, generally showed at least a 5 fold decrease in MIC, minimum inhibitory concentration at 50 °C compared with 30° C.) |  |
| CCCCCCCCOC(=O)CCC [Octyl butyrate] | 40 (≈ 8010 µg/mL) | High (High effects compounds, most preferred, generally showed at least a 5 fold decrease in MIC, minimum inhibitory concentration at 50 °C compared with 30° C.) |  |
| CCCCCCCCCCCC(=O)O [Lauric acid] |  | High (High effects compounds, most preferred, generally showed at least a 5 fold decrease in MIC, minimum inhibitory concentration at 50 °C compared with 30° C.) | effect of heat+pasteurisation adjunct on bacteria ([3]; Ready to Drink tea or synthetic soft drink pH 3.4, 2 minutes at temperature): remarkable combined synergistic effect; effect of pasteurisation adjunct at low temperature on growth ([3]; Ready to Drink tea or synthetic soft drink pH 3.4, low temperature): little effect; fungicidal activity at 30° C. ([1]; 30° C.): no fungicidal activity; fungicidal activity when heated to 50° C. ([1]; 50° C.): significant fungicidal activity; effect of heat+pasteurisation adjunct on yeast growth [2]: remarkable combined synergistic effect; effect of pasteurisation adjunct at low temperature on yeast growth [2]: little effect |
| CCCCCCCCCCCCC(=O)O [Tridecanoic acid] | 0.2 (≈ 42.9 µg/mL) | High (High effects compounds, most preferred, generally showed at least a 5 fold decrease in MIC, minimum inhibitory concentration at 50 °C compared with 30° C.) |  |
| C=C1CC/C=C(\C)CC[C@@H]2[C@@H]1CC2(C)C [β-Caryophylene] |  | Low | MIC50 [1, 4]: 70 mM (≈ 14300 µg/mL) |
